Experimental data from PMC11051419, “Structural Insights into the Marine Alkaloid Discorhabdin G as a Scaffold towards New Acetylcholinesterase Inhibitors” (Marine Drugs, 2024).
Where two headings read alike, the source gives them in different places.

How the values were obtained:
[1] = target: T1, electric eel acetylcholinesterase (eeAChE) (Electrophorus electricus, UniProt O42275); experiment: Inhibition of electric eel acetylcholinesterase (modified Ellman method); format: biochemical; settings: for Ki: Dixon plot, substrate 0.125, 0.25, 0.5 mM; for Ki / IC50: 3 as acetate salt; for IC50: Ellman method, pH 7.4, 25 °C; for type of inhibition against eeAChE: kinetic analysis, Dixon plot (Figure S4)
T1 construct: purchased Sigma-Aldrich
T1 sequence (O42275 24-633): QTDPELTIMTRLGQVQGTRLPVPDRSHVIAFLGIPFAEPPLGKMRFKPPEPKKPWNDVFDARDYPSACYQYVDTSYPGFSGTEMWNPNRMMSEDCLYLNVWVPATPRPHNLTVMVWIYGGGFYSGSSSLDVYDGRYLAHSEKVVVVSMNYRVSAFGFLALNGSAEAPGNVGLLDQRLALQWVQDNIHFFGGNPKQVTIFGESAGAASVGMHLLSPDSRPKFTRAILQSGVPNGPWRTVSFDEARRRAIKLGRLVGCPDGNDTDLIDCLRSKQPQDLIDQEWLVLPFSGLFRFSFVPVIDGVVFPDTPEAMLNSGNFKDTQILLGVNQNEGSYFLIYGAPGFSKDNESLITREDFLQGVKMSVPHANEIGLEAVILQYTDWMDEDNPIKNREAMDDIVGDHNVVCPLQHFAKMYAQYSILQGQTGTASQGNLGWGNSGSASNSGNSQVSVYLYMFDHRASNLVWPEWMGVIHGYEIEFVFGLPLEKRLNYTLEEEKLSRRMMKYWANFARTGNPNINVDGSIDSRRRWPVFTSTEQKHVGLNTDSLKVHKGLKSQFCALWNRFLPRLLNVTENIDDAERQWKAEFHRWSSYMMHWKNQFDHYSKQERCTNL
Method: (§1) The inhibition of cholinesterase activity was determined using a modification of the Ellman method, which was adapted for microtiter plates. Stock solutions of 3, 7, and 8 (2 mg/mL) were prepared in pure EtOH. […] Stock solutions of the potential inhibitors and the positive controls were added to the microtiter plate wells and progressively diluted in 100 mM potassium phosphate buffer (pH 7.4) to a final volume of 50 μL. Then, 100 μL acetylthiocholine chloride (1 mM) and 5,5′-dithiobis-2-nitrobenzoic acid (0.5 mM) in 100 mM potassium phosphate buffer (pH 7.4) was added into the microtiter plate wells. The cholinesterases that were used (eeAChE, hAChE, and BChE; all from Sigma-Aldrich, St. Louis, MO, USA) were dissolved in 100 mM potassium phosphate buffer (pH 7.4) to a final concentration of 0.0075 U/mL. Each cholinesterase solution (50 μL) was added into the microtiter plate wells to start the reaction, which was followed spectrophotometrically at 405 nm at 25 °C over 5 min using a kinetic microplate reader (Dynex Technologies Inc., Chantilly, VA, USA). Blank reactions without inhibitors were run with the appropriate dilutions of EtOH, and the readings were corrected according to the corresponding blanks. Each measurement was repeated at least three times. […] The data were analyzed using the OriginPro software (OriginPro 2021 (9.8), OriginLab Corporation, Northampton, MA, USA).

[2] = target: T2, horse serum butyrylcholinesterase (BChE) (Equus caballus, UniProt P81908); experiment: Inhibition of horse serum butyrylcholinesterase (modified Ellman method); format: biochemical; settings: for IC50: Ellman method, pH 7.4, 25 °C, 3 as acetate salt; for type of inhibition against BChE: kinetic analysis, Dixon plot (Figure S4)
T2 construct: human recombinant AChE (hAChE), and horse serum BChE; purchased Sigma-Aldrich; host or cells: horse serum
T2 sequence (P81908 whole entry): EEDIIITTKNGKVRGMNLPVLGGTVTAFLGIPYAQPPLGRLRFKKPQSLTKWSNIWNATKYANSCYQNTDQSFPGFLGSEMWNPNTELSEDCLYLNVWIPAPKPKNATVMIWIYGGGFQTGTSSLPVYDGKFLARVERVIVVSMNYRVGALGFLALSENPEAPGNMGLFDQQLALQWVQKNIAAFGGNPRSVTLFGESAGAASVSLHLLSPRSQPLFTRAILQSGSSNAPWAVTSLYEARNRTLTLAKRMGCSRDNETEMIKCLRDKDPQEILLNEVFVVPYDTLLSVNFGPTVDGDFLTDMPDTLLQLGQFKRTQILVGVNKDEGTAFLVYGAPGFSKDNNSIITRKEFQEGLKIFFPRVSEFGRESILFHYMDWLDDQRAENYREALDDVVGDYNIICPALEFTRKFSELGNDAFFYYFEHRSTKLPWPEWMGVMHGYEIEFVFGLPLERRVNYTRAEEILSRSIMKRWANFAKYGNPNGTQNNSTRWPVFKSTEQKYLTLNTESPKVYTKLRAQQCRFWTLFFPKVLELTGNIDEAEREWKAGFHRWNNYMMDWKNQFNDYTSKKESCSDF
Method: as §1

[3] = target: T3, human recombinant acetylcholinesterase (hAChE) (Homo sapiens, UniProt P22303); experiment: Inhibition of human recombinant acetylcholinesterase (modified Ellman method); format: biochemical; settings: for Ki: Dixon plot, substrate 0.125, 0.25, 0.5 mM; for Ki / IC50: 3 as acetate salt; for IC50: Ellman method, pH 7.4, 25 °C; for type of inhibition against hAChE: kinetic analysis, Dixon plot (Figure S4)
T3 construct: purchased Sigma-Aldrich
T3 sequence (P22303 32-614): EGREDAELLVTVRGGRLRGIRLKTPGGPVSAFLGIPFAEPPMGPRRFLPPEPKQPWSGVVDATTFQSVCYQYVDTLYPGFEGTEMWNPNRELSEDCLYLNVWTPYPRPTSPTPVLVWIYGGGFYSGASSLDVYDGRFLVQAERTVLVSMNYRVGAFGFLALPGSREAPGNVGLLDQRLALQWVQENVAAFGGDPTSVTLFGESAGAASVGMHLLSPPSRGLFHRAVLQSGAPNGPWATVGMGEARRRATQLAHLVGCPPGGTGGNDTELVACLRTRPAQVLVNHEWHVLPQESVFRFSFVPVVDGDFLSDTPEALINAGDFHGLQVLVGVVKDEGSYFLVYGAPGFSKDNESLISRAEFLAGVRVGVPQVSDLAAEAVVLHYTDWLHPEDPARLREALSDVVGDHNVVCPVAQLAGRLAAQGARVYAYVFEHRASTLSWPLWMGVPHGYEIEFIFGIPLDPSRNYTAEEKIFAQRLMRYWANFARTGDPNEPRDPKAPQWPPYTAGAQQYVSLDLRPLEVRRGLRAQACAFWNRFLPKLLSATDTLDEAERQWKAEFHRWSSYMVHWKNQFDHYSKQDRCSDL
Method: as §1

[4] = target: T1, electric eel acetylcholinesterase (eeAChE); settings: cited from earlier work
[5] = tested on: neuromuscular transmission or skeletal muscle function; settings: electrophysiological study; cited from earlier work
[6] = target: T2, horse serum butyrylcholinesterase (BChE); settings: cited from earlier work
[7] = target: T3, human recombinant acetylcholinesterase (hAChE); settings: cited from earlier work
[8] = discorhabdin G as trifluoroacetate (TFA) salt, ref Botić et al. [5]

| Compound | Ki [1] [µM] | IC50 [1] [µM] | type of inhibition against eeAChE [1] | IC50 [2] [µM] | type of inhibition against BChE [2] | Ki [3] [µM] | IC50 [3] [µM] | type of inhibition against hAChE [3] | other results |
| --- | --- | --- | --- | --- | --- | --- | --- | --- | --- |
| Cc1nc2c3n1CCN=C3c1ccccc1C2=O [Compound 3, 5-methyl-2H-benzo[h]imidazo[1,5,4-de]quinoxalin-7(3H)-one] | 7.3 | 13.5 | reversible competitive | > 400 | reversible competitive | 5.8 | 16.9 | reversible competitive |  |
| Cc1nc2c(o1)C(=O)c1ccccc1C2=O [Compound 7, 2-methylnaphtho[2,3-d]oxazole-4,9-dione] | 65 | 188 | reversible competitive | 145 | reversible competitive | 50 | 234 | reversible competitive | Ki ([2]; Dixon plot, substrate 0.125, 0.25, 0.5 mM): 50 µM |
| CC(=O)NC1=C2NCCN=C2c2ccccc2C1=O [Compound 8, N-(6-oxo-2,3,4,6-tetrahydrobenzo[f]quinoxalin-5-yl)acetamide] |  | > 400 |  | > 400 |  |  | > 400 |  |  |
| CN(C)C(=O)Oc1cccc([N+](C)(C)C)c1 [Neostigmine methylsulfate, reference compound] |  | 6 |  | 83.7 |  |  |  |  |  |
| discorhabdin G [Compound 1] |  |  |  |  |  |  |  |  | IC50 [4, 8]: 1.3 µM; Ki [4, 8]: 1.6 µM; type of inhibition against eeAChE ([4]; previously observed): reversible competitive; adverse effects on neuromuscular transmission or skeletal muscle function [5]: no adverse effects; IC50 [6, 8]: 7 µM; Ki [6, 8]: 5 µM; type of inhibition against BChE ([6]; previously observed): reversible competitive; IC50 [7, 8]: 116 µM; Ki [7, 8]: 56.2 µM; type of inhibition against hAChE ([7]; previously observed): reversible competitive |
